Test results taken from ChEMBL document CHEMBL3596161, “Progress Toward the Development of Noscapine and Derivatives as Anticancer Agents” (J Med Chem, 2015).
pEC50, pIC50, pKd: −log10 of the molar value.

Legend:
Tubulin (Homo sapiens) = Tubulin (Homo sapiens) (UniProt P68371+Q9H4B7+P0DPH7+P68366+Q13509+Q71U36+P04350+Q3ZCM7+P07437+P68363+Q9BQE3+Q6PEY2+Q13885+Q9BVA1+Q9BUF5); experiment: Inhibition of MAPs-rich tubulin (unknown origin) polymerization at 50 uM; format: protein-complex assay
CCRF-CEM = experiment: Cytotoxicity against human CEM cells; format: functional, cell-based
HeLa [1] = experiment: Cytotoxicity against human HeLa cells; format: functional, cell-based
A549 = experiment: Cytotoxicity against human A549 cells; format: functional, cell-based
MCF7 = experiment: Cytotoxicity against human MCF7 cells; format: functional, cell-based
[2] = Cytotoxicity against human MCF-7 FLV1000 cells expressing […]; format: functional, cell-based
Tubulin = experiment: Binding affinity to tubulin (unknown origin); format: protein-complex assay, Homo sapiens
HeLa [3] = experiment: Antimitotic activity against human HeLa cells; format: functional, cell-based
HeLa [4] = experiment: Cell cycle arrest in human HeLa cells assessed as accumulation at G2/M phase by measuring 4N DNA content at 6.4 uM by flow cytometry; format: functional
[5] = Antitumor activity against human H460 cells xenografted in athymic nu/nu mouse assessed as tumor regression at 10 mg/kg/day, po administered for 24 days; format: functional, NCI-H460
[6] = Cytotoxicity against human NCI-ADR-RES cells expressing ABCB1
[7] = Cytotoxicity against human NCI/ADR cells; conditions: NCI/ADR-RES

| Compound | pIC50 (CCRF-CEM) | pIC50 (HeLa [1]) | pIC50 (A549) | pIC50 (MCF7) | also measured |
| --- | --- | --- | --- | --- | --- |
| COc1ccc2c(c1OCCCCS(=O)(=O)O)C(=O)O[C@@H]2[C@H]1c2c(c(Br)c3c(c2OC)OCO3)CCN1C |  |  |  |  | inhibition (Tubulin (Homo sapiens)): 68% |
| COc1ccc(CN2CCc3cc4c(c(OC)c3[C@@H]2[C@H]2OC(=O)c3c2ccc(OC)c3OC)OCO4)cc1 | 5.11 | 4.75 | 4.47 | 4.54 |  |
| O=C1c2c(O)ccc(O)c2C(=O)c2c(NCCNCCO)ccc(NCCNCCO)c21 [MITOXANTRONE] |  |  |  | 7.59 | pIC50 [2]: 6.36 |
| COc1ccc2c(c1OC)C(=O)O[C@@H]2[C@H]1c2c(cc3c(c2OC)OCO3)CCN1Cc1cccc(Cl)c1 | 4.92 | 4.55 | 4.21 | 4.34 |  |
| COc1ccc2c(c1OC)CO[C@@H]2[C@H]1c2c(c(Br)c3c(c2OC)OCO3)CCN1C |  |  |  |  | pKd (Tubulin): 3.97; pEC50 (HeLa [3]): 5.44; Activity (HeLa [4]): 72.7% |
| COc1ccc2c(c1OC)C(=O)O[C@@H]2[C@@H]1NCCc2cc3c(c(OC)c21)OCO3 | 5.05 | 4.68 | 4.38 | 4.47 |  |
| COC(=O)CN1CCc2cc3c(c(OC)c2[C@@H]1[C@H]1OC(=O)c2c1ccc(OC)c2OC)OCO3 | 5.02 | 4.65 | 4.34 | 4.44 |  |
| CC(=O)O[C@@]12CO[C@@H]1C[C@H](O)[C@@]1(C)C(=O)[C@H](O)C3=C(C)[C@@H](OC(=O)[C@H](O)[C@@H](NC(=O)OC(C)(C)C)c4ccccc4)C[C@@](O)([C@@H](OC(=O)c4ccccc4)[C@H]21)C3(C)C [DOCETAXEL ANHYDROUS] |  |  |  |  | Activity [5]: 93% |
| COc1ccc2c(c1OCCCS(=O)(=O)O)C(=O)O[C@@H]2[C@H]1c2c(c(Br)c3c(c2OC)OCO3)CCN1C |  |  |  |  | inhibition (Tubulin (Homo sapiens)): 61% |
| COc1cccc(CN2CCc3cc4c(c(OC)c3[C@@H]2[C@H]2OC(=O)c3c2ccc(OC)c3OC)OCO4)c1 | 5.17 | 4.82 | 4.57 | 4.61 |  |
| COc1cc2c(c(OC)c1OC)-c1ccc(OC)c(=O)cc1[C@@H](NC(C)=O)CC2 [COLCHICINE] |  |  |  |  | pIC50 [6]: 7.02; pIC50 [7]: 9.44 |
